Assays:
Experiment in all cases: KINOMEscan binding
MLK1 = biological target: T1, MLK1 (Homo sapiens, UniProt P80192); conditions: read-out: Percent Control
T1 construct: purchased Eurofins DiscoverX KINOMEscan

TAK1 = biological target: T2, TAK1 (Homo sapiens, UniProt O43318); conditions: read-out: Percent Control
T2 construct: purchased Eurofins DiscoverX KINOMEscan

DRAK2 = biological target: T3, DRAK2 (Homo sapiens, UniProt O94768); conditions: read-out: Percent Control
T3 construct: purchased Eurofins DiscoverX KINOMEscan

ERK1 = biological target: T4, ERK1 (Homo sapiens, UniProt P27361); conditions: read-out: Percent Control
T4 construct: purchased Eurofins DiscoverX KINOMEscan

JNK1 = biological target: T5, JNK1 (Homo sapiens, UniProt P45983); conditions: read-out: Percent Control
T5 construct: purchased Eurofins DiscoverX KINOMEscan

PLK1 = biological target: T6, PLK1 (Homo sapiens, UniProt P53350); conditions: read-out: Percent Control
T6 construct: purchased Eurofins DiscoverX KINOMEscan

CDK7 = biological target: T7, CDK7 (Homo sapiens, UniProt P50613); conditions: read-out: Percent Control
T7 construct: purchased Eurofins DiscoverX KINOMEscan

PRKCD = biological target: T8, PRKCD (Homo sapiens, UniProt Q05655); conditions: read-out: Percent Control
T8 construct: purchased Eurofins DiscoverX KINOMEscan

CDK2 = biological target: T9, CDK2 (Homo sapiens, UniProt P24941); conditions: read-out: Percent Control
T9 construct: purchased Eurofins DiscoverX KINOMEscan

WEE1 = biological target: T10, WEE1 (Homo sapiens, UniProt P30291); conditions: read-out: Percent Control
T10 construct: purchased Eurofins DiscoverX KINOMEscan
T10 sequence (P30291 whole entry): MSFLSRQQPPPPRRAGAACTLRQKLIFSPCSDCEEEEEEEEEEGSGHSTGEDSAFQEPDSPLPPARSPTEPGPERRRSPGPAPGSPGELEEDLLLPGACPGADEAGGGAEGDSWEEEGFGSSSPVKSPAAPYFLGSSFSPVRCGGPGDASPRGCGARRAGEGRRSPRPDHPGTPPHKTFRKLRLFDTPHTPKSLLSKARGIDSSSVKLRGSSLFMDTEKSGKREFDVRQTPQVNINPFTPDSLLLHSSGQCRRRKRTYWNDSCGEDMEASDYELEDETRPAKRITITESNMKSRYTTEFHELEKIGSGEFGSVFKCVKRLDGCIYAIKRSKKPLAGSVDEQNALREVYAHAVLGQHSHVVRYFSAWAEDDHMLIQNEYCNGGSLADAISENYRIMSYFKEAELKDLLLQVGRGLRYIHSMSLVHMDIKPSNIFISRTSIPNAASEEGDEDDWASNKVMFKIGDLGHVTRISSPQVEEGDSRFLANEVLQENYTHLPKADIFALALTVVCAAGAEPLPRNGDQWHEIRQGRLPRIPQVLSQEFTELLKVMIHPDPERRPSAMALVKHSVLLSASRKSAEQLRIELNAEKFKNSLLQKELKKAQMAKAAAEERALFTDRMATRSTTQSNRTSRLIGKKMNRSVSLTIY

MARK3 = biological target: T11, MARK3 (Homo sapiens, UniProt P27448); conditions: read-out: Percent Control
T11 construct: purchased Eurofins DiscoverX KINOMEscan

EPHA5 = biological target: T12, EPHA5 (Homo sapiens, UniProt P54756); conditions: read-out: Percent Control
T12 construct: purchased Eurofins DiscoverX KINOMEscan

ASK1 = biological target: T13, ASK1 (Homo sapiens, UniProt Q99683); conditions: read-out: Percent Control
T13 construct: purchased Eurofins DiscoverX KINOMEscan

IKK-alpha = biological target: T14, IKK-alpha (Homo sapiens, UniProt O15111); conditions: read-out: Percent Control
T14 construct: purchased Eurofins DiscoverX KINOMEscan

NIK = biological target: T15, NIK (Homo sapiens, UniProt Q99558); conditions: read-out: Percent Control
T15 construct: purchased Eurofins DiscoverX KINOMEscan

HIPK4 = biological target: T16, HIPK4 (Homo sapiens, UniProt Q8NE63); conditions: read-out: Percent Control
T16 construct: purchased Eurofins DiscoverX KINOMEscan

ROCK1 = biological target: T17, ROCK1 (Homo sapiens, UniProt Q13464)
T17 construct: purchased Eurofins DiscoverX KINOMEscan
T17 sequence (Q13464 whole entry): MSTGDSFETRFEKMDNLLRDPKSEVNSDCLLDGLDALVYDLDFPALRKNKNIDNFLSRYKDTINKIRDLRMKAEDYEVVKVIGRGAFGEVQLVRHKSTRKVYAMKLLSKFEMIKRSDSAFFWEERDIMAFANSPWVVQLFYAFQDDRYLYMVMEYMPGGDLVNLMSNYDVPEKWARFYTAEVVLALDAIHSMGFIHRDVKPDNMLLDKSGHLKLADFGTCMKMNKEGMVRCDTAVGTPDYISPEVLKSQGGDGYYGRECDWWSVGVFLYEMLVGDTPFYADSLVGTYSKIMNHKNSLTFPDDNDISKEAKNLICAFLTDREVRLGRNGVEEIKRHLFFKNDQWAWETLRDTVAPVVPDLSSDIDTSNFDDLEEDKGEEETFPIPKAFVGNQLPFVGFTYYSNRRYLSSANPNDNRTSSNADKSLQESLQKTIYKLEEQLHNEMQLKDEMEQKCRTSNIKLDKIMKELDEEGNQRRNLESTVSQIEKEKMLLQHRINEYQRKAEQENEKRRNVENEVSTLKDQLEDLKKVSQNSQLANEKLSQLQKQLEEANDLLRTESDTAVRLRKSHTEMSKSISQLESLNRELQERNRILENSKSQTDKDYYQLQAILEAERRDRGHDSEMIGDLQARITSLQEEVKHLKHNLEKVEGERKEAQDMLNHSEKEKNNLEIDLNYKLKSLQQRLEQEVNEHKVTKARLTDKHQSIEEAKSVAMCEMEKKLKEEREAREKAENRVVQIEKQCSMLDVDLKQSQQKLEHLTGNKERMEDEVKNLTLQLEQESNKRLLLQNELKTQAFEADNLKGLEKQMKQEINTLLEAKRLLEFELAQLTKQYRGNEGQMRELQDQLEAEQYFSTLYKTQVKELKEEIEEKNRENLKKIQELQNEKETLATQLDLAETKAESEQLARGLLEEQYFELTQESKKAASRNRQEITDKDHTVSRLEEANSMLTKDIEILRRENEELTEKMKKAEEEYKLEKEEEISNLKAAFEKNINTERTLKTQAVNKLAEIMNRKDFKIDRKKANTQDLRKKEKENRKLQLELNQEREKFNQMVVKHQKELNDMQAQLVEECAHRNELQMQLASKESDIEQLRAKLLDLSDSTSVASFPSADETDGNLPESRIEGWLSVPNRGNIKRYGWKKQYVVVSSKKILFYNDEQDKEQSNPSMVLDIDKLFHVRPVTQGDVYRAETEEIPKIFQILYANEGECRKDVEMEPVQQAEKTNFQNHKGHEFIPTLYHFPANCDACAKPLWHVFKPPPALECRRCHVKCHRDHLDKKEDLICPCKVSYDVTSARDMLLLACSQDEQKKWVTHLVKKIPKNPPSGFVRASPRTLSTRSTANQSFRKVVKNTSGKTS

TBK1 = biological target: T18, TBK1 (Homo sapiens, UniProt Q9UHD2); conditions: read-out: Percent Control
T18 construct: purchased Eurofins DiscoverX KINOMEscan

CSNK1E = biological target: T19, CSNK1E (Homo sapiens, UniProt P49674); conditions: read-out: Percent Control
T19 construct: purchased Eurofins DiscoverX KINOMEscan

[1] = biological target: T20, ABL1(T315I)-nonphosphorylated (Homo sapiens, UniProt P00519, T315I); conditions: read-out: Percent Control
T20 construct: purchased Eurofins DiscoverX KINOMEscan

NLK = biological target: T21, NLK (Homo sapiens, UniProt Q9UBE8); conditions: read-out: Percent Control
T21 construct: purchased Eurofins DiscoverX KINOMEscan

YSK1 = biological target: T22, YSK1 (Homo sapiens, UniProt O00506); conditions: read-out: Percent Control
T22 construct: purchased Eurofins DiscoverX KINOMEscan
T22 sequence (O00506 whole entry): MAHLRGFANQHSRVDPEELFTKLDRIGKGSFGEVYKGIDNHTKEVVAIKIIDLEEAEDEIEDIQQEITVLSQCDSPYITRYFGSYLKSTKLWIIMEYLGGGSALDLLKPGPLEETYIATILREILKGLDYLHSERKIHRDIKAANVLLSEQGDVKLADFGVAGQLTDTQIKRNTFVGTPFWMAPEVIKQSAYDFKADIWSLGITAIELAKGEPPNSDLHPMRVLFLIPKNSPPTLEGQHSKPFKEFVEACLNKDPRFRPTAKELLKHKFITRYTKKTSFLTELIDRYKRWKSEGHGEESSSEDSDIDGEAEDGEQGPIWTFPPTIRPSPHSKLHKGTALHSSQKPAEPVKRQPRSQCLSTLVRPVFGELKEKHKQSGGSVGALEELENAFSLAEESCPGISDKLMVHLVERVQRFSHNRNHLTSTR

[2] = biological target: T23, ABL1(F317L)-nonphosphorylated (Homo sapiens, UniProt P00519, F317L); conditions: read-out: Percent Control
T23 construct: purchased Eurofins DiscoverX KINOMEscan

PYK2 = biological target: T24, PYK2 (Homo sapiens, UniProt Q14289); conditions: read-out: Percent Control
T24 construct: purchased Eurofins DiscoverX KINOMEscan

MEK5 = biological target: T25, MEK5 (Homo sapiens, UniProt Q13163); conditions: read-out: Percent Control
T25 construct: purchased Eurofins DiscoverX KINOMEscan
T25 sequence (Q13163 whole entry): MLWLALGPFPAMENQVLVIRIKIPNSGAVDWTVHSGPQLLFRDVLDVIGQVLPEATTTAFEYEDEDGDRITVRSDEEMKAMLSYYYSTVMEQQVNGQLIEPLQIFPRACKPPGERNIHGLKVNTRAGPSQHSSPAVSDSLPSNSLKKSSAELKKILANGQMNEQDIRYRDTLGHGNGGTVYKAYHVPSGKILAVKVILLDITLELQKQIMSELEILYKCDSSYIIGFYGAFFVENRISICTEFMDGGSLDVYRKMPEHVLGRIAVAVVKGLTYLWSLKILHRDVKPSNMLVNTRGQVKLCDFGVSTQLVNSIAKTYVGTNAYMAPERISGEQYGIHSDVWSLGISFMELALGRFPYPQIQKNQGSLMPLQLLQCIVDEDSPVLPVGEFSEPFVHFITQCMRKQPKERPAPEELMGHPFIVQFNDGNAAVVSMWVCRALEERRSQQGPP

HCK = biological target: T26, HCK (Homo sapiens, UniProt P08631); conditions: read-out: Percent Control
T26 construct: purchased Eurofins DiscoverX KINOMEscan

BRSK2 = biological target: T27, BRSK2 (Homo sapiens, UniProt Q8IWQ3); conditions: read-out: Percent Control
T27 construct: purchased Eurofins DiscoverX KINOMEscan

VPS34 = biological target: T28, VPS34 (Homo sapiens, UniProt Q8NEB9); conditions: read-out: Percent Control
T28 construct: purchased Eurofins DiscoverX KINOMEscan

[3] = biological target: T29, ABL1(Q252H)-phosphorylated (Homo sapiens, UniProt P00519, Q252H); conditions: read-out: Percent Control
T29 construct: purchased Eurofins DiscoverX KINOMEscan

DAPK2 = biological target: T30, DAPK2 (Homo sapiens, UniProt Q9UIK4); conditions: read-out: Percent Control
T30 construct: purchased Eurofins DiscoverX KINOMEscan

TYRO3 = biological target: T31, TYRO3 (Homo sapiens, UniProt Q06418); conditions: read-out: Percent Control
T31 construct: purchased Eurofins DiscoverX KINOMEscan
T31 sequence (Q06418 41-890): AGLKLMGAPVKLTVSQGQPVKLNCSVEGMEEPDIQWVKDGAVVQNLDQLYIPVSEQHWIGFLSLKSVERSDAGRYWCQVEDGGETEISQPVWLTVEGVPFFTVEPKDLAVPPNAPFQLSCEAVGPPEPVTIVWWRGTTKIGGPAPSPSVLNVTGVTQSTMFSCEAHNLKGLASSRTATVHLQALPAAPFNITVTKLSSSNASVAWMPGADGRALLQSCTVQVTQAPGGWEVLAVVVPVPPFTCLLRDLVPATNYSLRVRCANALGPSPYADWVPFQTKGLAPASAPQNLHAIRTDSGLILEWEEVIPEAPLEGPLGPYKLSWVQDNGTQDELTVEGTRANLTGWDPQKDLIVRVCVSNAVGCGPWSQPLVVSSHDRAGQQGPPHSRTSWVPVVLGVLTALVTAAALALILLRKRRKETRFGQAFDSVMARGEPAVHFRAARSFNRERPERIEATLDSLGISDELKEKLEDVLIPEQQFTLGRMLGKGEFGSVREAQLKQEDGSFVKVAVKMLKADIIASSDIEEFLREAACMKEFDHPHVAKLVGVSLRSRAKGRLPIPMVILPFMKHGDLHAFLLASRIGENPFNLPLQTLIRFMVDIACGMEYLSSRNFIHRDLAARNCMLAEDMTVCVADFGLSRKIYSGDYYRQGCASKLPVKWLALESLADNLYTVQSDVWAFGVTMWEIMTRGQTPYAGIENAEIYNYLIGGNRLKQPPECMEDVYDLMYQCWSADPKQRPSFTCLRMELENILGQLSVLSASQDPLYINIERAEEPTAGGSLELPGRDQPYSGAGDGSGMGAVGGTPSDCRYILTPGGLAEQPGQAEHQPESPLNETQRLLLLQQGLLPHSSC

FLT3 = biological target: T32, FLT3 (Homo sapiens, UniProt P36888); conditions: read-out: Percent Control
T32 construct: purchased Eurofins DiscoverX KINOMEscan
T32 sequence (P36888 27-993): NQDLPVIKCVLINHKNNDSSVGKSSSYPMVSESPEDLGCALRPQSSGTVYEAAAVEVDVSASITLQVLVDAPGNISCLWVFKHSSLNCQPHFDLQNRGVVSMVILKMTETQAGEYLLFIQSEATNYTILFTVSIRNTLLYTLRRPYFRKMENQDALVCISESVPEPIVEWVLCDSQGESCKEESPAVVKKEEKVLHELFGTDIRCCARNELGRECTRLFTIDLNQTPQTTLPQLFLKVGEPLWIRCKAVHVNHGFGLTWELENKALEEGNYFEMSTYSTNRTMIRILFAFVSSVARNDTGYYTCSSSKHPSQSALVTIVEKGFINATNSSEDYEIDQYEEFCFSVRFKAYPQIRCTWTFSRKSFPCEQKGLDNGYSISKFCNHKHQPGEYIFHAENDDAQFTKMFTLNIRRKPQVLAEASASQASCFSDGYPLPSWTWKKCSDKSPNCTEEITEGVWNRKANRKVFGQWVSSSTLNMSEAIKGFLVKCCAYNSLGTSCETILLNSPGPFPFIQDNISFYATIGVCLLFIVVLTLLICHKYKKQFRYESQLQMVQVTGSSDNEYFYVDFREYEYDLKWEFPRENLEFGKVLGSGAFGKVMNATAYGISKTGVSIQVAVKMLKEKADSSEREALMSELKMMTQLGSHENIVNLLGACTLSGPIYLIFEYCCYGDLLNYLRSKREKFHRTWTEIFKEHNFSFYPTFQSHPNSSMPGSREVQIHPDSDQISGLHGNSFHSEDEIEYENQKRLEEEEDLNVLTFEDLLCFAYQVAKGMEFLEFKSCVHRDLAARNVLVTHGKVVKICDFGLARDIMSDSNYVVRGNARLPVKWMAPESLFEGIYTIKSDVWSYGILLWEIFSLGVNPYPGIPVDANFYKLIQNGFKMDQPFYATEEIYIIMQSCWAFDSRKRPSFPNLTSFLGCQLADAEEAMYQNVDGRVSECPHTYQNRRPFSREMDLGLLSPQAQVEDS

IRAK3 = biological target: T33, IRAK3 (Homo sapiens, UniProt Q9Y616); conditions: read-out: Percent Control
T33 construct: purchased Eurofins DiscoverX KINOMEscan

[4] = biological target: T34, ABL1(Y253F)-phosphorylated (Homo sapiens, UniProt P00519, Y253F); conditions: read-out: Percent Control
T34 construct: purchased Eurofins DiscoverX KINOMEscan

PRKCH = biological target: T35, PRKCH (Homo sapiens, UniProt P24723); conditions: read-out: Percent Control
T35 construct: purchased Eurofins DiscoverX KINOMEscan

MYLK4 = biological target: T36, MYLK4 (Homo sapiens, UniProt Q86YV6); conditions: read-out: Percent Control
T36 construct: purchased Eurofins DiscoverX KINOMEscan

[5] = biological target: T37, TYK2(JH2domain-pseudokinase) (Homo sapiens, UniProt P29597); conditions: read-out: Percent Control
T37 construct: TYK2(JH2domain-pseudokinase); purchased Eurofins DiscoverX KINOMEscan
T37 sequence (P29597 556-888 limits assumed): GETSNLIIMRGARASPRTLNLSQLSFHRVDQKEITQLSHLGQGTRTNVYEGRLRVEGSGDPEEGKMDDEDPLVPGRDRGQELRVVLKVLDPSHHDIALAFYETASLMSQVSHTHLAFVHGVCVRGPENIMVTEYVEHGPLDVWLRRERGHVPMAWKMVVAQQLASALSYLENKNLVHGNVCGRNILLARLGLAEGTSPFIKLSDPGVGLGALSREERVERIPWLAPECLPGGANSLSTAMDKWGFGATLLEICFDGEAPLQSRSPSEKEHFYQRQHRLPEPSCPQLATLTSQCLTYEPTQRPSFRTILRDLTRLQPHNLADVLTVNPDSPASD

MYO3B = biological target: T38, MYO3B (Homo sapiens, UniProt Q8WXR4); conditions: read-out: Percent Control
T38 construct: purchased Eurofins DiscoverX KINOMEscan

PFTAIRE2 = biological target: T39, PFTAIRE2 (Homo sapiens, UniProt Q96Q40); conditions: read-out: Percent Control
T39 construct: purchased Eurofins DiscoverX KINOMEscan

DYRK1A = biological target: T40, DYRK1A (Homo sapiens, UniProt Q13627); conditions: read-out: Percent Control
T40 construct: purchased Eurofins DiscoverX KINOMEscan

MAP3K1 = biological target: T41, MAP3K1 (Homo sapiens, UniProt Q13233); conditions: read-out: Percent Control
T41 construct: purchased Eurofins DiscoverX KINOMEscan

PIK3CD = biological target: T42, PIK3CD (Homo sapiens, UniProt O00329); conditions: read-out: Percent Control
T42 construct: purchased Eurofins DiscoverX KINOMEscan

NDR1 = biological target: T43, NDR1 (Homo sapiens, UniProt Q15208); conditions: read-out: Percent Control
T43 construct: purchased Eurofins DiscoverX KINOMEscan

[6] = biological target: T44, ABL1(E255K)-phosphorylated (Homo sapiens, UniProt P00519, E255K); conditions: read-out: Percent Control
T44 construct: purchased Eurofins DiscoverX KINOMEscan

CC(C)NC(=O)COc1cccc(-c2nc(Nc3ccc4[nH]ncc4c3)c3ccccc3n2)c1 [KD025, 2-(3-(4-((1H-indazol-5-yl)amino)quinazolin-2-yl)phenoxy)-N-isopropylacetamide]
remaining binding at 10 µM (MLK1): 87% | remaining binding at 10 µM (TAK1): 68% | remaining binding at 10 µM (DRAK2): 85% | remaining binding at 10 µM (ERK1): 63% | remaining binding at 10 µM (JNK1): 70% | remaining binding at 10 µM (PLK1): 100% | remaining binding at 10 µM (CDK7): 76% | remaining binding at 10 µM (PRKCD): 70% | remaining binding at 10 µM (CDK2): 93% | remaining binding at 10 µM (WEE1): 100% | remaining binding at 10 µM (MARK3): 92% | remaining binding at 10 µM (EPHA5): 92% | remaining binding at 10 µM (ASK1): 100% | remaining binding at 10 µM (IKK-alpha): 100% | remaining binding at 10 µM (NIK): 84% | remaining binding at 10 µM (HIPK4): 69% | ROCK1 vs. ROCK2 in POC (ROCK1; 10 μM): 900 fold | remaining binding at 10 µM (ROCK1; ROCK1, read-out: Percent Control): 45% | remaining binding at 10 µM (TBK1): 66% | remaining binding at 10 µM (CSNK1E): 61% | remaining binding at 10 µM [1]: 93% | remaining binding at 10 µM (NLK): 80% | remaining binding at 10 µM (YSK1): 70% | remaining binding at 10 µM [2]: 96% | remaining binding at 10 µM (PYK2): 95% | remaining binding at 10 µM (MEK5): 63% | remaining binding at 10 µM (HCK): 95% | remaining binding at 10 µM (BRSK2): 95% | remaining binding at 10 µM (VPS34): 27% | remaining binding at 10 µM [3]: 100% | remaining binding at 10 µM (DAPK2): 100% | remaining binding at 10 µM (TYRO3): 91% | remaining binding at 10 µM (FLT3): 60% | remaining binding at 10 µM (IRAK3): 96% | remaining binding at 10 µM [4]: 49% | remaining binding at 10 µM (PRKCH): 96% | remaining binding at 10 µM (MYLK4): 17% | remaining binding at 10 µM [5]: 81% | remaining binding at 10 µM (MYO3B): 100% | remaining binding at 10 µM (PFTAIRE2): 52% | remaining binding at 10 µM (DYRK1A): 72% | remaining binding at 10 µM (MAP3K1): 85% | remaining binding at 10 µM (PIK3CD): 41% | remaining binding at 10 µM (NDR1): 73% | remaining binding at 10 µM [6]: 67%

Source: publication PMC8401933 (Molecules, 2021)
